Data published in patent publication US6284468A, “Composition and methods for determining the activity of DNA-binding proteins and of initiation of trascription” (Dnab Diagnostics, Inc., priority 2000, dated 2001).

Experiments:
[1] = molecular target: T1, Escherichia coli RNA polymerase (Escherichia coli, UniProt P0A8V2); assay: Inhibition of initiation of transcription (de-protection of BseRI site of plasmid pDNAB-tac, ethidium bromide fluorescence); assay type: biochemical
T1 construct: purchased Pharmacia, Uppsala, Sweden
Protocol: In order to measure the initiation of transcription RNA polymerase was added to 0.5 μg of pDNAB-tac plasmid following the same procedure described above for the measurement of DNA-binding activity. The 4 ribonucleotide triphosphates (ATP, CTP, GTP and UTP) were then added to the reaction mixture followed by BseRI and the amount of CCC DNA left was measured after 20 minutes using ethidium bromide fluorescence as in Example 1. In the presence of the 4 ribonucleotide triphosphates the RNA polymerase starts polymerizing an RNA molecule and it moves away from the promoter sequence, thereby de-protecting the BseRI cleavage site. Cleavage at this site can take place then.
In order to measure the inhibition of the initiation of transcription, the effect of various concentrations of rifampicin on the de-protection of the BseRI site was measured. […] After 5 minutes of incubation, rifampicin and BseRI were added and the amount of uncleaved plasmid was measured after 20 minutes of incubation at 37° C. The 4 ribonucleotide triphosphates were then added and the amount of uncleaved plasmid was measured again after 20 more minutes of incubation at 37° C. […]
The relative effects of rifampicin on transcription was quantitated using the formula [formula] […]

[2] = molecular target: T1, Escherichia coli RNA polymerase; assay: Binding of RNA polymerase to the promoter sequence (protection of pDNAB-tac from BseRI cleavage, before addition of ribonucleotide triphosphates); conditions: various concentrations of rifampicin, FIG. 14
Protocol: The following experiment was conducted to measure the DNA-binding activity of RNA polymerase to its cognate nucleotide recognition sequence. The incubation buffer contained 50 mM tris HCI (pH 8), 5 mM MgCl2, 100 mM potassium glutamate, and 3, μg of pDNABtac DNA in 60 μL final volume. One to 9 units of RNA polymerase (Boehringer-Mannheim, Mannheim, Germany) were added and, after preincubation at 37° C. for 5 minutes, the reaction was cooled to 31° C.
In order to measure the inhibition of the initiation of transcription, the effect of various concentrations of rifampicin on the de-protection of the BseRI site was measured. Rifampicin is an antibiotic used in the therapy of bacterial infections (e.g. tuberculosis) and it specifically targets bacterial RNA polymerase, by inhibiting its transcription activity. […] After 5 minutes of incubation, rifampicin and BseRI were added and the amount of uncleaved plasmid was measured after 20 minutes of incubation at 37° C. The 4 ribonucleotide triphosphates were then added and the amount of uncleaved plasmid was measured again after 20 more minutes of incubation at 37° C.
The white bars represent the fluorescence units (i.e. the amount of uncleaved plasmid) before the addition of the 4 ribonucleoside triphosphates, while the hatched bars represent the fluorescence units left after addition of the 4 ribonucleotide triphosphates.

CO[C@H]1/C=C/O[C@@]2(C)Oc3c(C)c(O)c4c(O)c(c(/C=N/N5CCN(C)CC5)c(O)c4c3C2=O)NC(=O)/C(C)=C\C=C\[C@H](C)[C@H](O)[C@@H](C)[C@@H](O)[C@@H](C)[C@H](OC(C)=O)[C@@H]1C [rifampicin]
Ki ([1]; Michaelis-Menten fit of % inhibition, rifampicin 0.2 μM to 3.2 μM, plasmid pDNAB-tac, 37° C., read-out: apparent Ki of rifampicin (inhibition of initiation of transcription activity)): 2800 nM
inhibition of the transcription initiation activity ([1]; various concentrations of rifampicin, with the 4 ribonucleotide triphosphates, FIG. 14): dose-dependent inhibition
inhibition of the binding of RNA polymerase to the promoter sequence [2]: not of the binding of RNA polymerase to the promoter sequence
